# Reference: US9676782B2, “Substituted pyrazolo[1,5-a]pyrazines as negative allosteric modulators of metabotropic glutamate receptor 3” (Vanderbilt University, priority 2014, dated 2017)
# Where two headings read alike, the source gives them in different places.
# Assays:
# [1] = target: rat mGlu3 (Rattus norvegicus (Rat), UniProt P31422); assay: mGlu3 Ca2+ flux assay; assay type: cell-based; conditions: for remaining activity at 30 µM: amplitude of response at 30 μM test compound as % of maximal response to glutamate, read-out: rat mGlu3 Glu max (%)
# Protocol: (§1) The cells were grown overnight at 37° C. in the presence of 5% CO2. […] Dye was removed, 20 μL of assay buffer was added, and the plate was incubated for 10 minutes at room temperature. Ca^2+ flux was measured using the Functional Drug Screening System (FDSS7000, Hamamatsu, Japan). […] All test compounds were dissolved and diluted to a concentration of 10 mM in 100% DMSO. […] Calcium fluorescence measures were recorded as fold over basal fluorescence; raw data was then normalized to the maximal response to glutamate. […] The raw data file containing all time points was used as the data source in the analysis template. This was saved by the FDSS as a tab-delimited text file. Data were normalized using a static ratio function (F/F0) for each measurement of the total 360 values per well divided by each well's initial value. […] This is sufficient time to capture the peak amplitude of the cellular calcium response. […] EC50 values for test compounds were generated by fitting the normalized values versus the log of the test compound concentration (in mol/L) using a 4 parameter logistic equation where none of the parameters were fixed. Each of the three values collected at each concentration of test compound were weighted evenly.
# [2] = target: rat mGlu5 (Rattus norvegicus (Rat), UniProt P31424); assay: mGlu5 Ca2+ flux assay; assay type: cell-based; conditions: for Fold selectivity (mGlu3 vs. mGlu5): ratio of rat mGlu5 EC50 or IC50 to rat mGlu3 IC50; for EC50: read-out: rat mGlu5 EC50 or IC50; for Emax at 30 µM: PAM, amplitude of response at 30 μM test compound as % of maximal response to glutamate, read-out: rat mGlu5 Glu max (%)
# Protocol: as §1, with “for 5” for “for 10”
# [3] = NAM potency, decrease of glutamate EC80 response, >30,000 = no measurable activity, >10,000 = no plateau, read-out: rat mGlu3 IC50
# rat mGlu5, sequence (P31424 21-1203): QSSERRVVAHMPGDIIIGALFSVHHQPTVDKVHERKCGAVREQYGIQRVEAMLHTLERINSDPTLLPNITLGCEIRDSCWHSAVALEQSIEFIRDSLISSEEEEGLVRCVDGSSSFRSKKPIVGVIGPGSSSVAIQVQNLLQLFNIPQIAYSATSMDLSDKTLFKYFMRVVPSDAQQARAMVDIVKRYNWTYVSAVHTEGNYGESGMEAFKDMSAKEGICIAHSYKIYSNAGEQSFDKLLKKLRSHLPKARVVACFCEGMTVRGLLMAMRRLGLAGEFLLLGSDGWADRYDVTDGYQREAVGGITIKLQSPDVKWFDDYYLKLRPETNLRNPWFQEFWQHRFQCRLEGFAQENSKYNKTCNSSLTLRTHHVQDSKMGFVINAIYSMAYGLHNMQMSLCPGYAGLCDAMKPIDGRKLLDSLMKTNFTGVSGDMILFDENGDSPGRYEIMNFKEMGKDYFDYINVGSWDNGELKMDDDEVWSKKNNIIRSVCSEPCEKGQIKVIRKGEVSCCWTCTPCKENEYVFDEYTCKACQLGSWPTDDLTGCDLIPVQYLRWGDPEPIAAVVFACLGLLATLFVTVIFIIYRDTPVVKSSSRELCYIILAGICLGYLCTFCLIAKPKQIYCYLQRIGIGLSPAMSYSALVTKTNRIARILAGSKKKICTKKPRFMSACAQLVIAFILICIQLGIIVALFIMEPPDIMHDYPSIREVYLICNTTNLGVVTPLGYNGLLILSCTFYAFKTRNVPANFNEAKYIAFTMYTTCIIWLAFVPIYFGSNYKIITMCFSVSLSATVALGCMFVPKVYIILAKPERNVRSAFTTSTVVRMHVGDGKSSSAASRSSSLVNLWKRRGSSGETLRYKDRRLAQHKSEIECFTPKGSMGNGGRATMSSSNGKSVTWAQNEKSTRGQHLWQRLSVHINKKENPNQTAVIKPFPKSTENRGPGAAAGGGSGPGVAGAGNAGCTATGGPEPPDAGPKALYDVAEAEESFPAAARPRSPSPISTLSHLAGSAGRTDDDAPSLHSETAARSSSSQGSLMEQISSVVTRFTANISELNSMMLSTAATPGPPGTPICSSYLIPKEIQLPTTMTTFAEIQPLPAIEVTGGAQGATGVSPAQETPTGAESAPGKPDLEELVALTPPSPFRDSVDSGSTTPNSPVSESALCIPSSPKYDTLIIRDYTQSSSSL
# rat mGlu3, sequence (P31422 23-879): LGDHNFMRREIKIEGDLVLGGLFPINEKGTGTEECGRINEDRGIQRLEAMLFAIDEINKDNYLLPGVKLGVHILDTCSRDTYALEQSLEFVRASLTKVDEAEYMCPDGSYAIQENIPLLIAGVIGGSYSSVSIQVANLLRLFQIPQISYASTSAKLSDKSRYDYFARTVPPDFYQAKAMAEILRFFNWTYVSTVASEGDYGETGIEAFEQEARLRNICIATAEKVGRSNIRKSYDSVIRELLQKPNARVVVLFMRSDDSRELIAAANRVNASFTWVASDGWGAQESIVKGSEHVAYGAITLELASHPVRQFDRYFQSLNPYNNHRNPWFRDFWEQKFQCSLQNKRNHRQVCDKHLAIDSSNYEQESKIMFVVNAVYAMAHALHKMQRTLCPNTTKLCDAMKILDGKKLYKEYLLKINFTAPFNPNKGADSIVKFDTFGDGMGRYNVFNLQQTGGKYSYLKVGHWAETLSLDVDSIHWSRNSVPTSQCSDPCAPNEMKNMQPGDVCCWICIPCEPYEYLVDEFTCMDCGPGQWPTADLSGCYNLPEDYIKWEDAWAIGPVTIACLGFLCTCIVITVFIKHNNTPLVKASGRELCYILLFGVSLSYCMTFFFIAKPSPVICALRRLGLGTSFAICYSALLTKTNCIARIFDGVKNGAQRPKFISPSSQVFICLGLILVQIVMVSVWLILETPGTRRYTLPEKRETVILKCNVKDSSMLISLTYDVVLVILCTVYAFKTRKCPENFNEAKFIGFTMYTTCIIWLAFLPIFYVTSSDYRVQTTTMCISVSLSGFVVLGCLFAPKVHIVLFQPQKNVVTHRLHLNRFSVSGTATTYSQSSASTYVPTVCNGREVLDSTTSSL
compound,measurement,setting,value
"COc1ccc(NCc2cc3n(n2)CCN(c2ccc(F)c(F)c2)C3=O)cc1 [Compound 1, 5-(3,4-Difluorophenyl)-2-(((4-methoxyphenyl)amino)methyl)-6,7-dihydropyrazolo[1,5-a]pyrazin-4(5H)-one]",remaining activity at 30 µM,[1],4.04%
same,Fold selectivity (mGlu3 vs. mGlu5),[2],>20
same,EC50,[2],> 30 µM
"O=C1c2cc(CNc3ccccc3)nn2CCN1c1ccc(F)cc1 [Compound 2, 5-(4-fluorophenyl)-2-((phenylamino)methyl)-6,7-dihydropyrazolo[1,5-a]pyrazin-4(5H)-one]",IC50,[1]; [3],1320 nM
same,remaining activity at 30 µM,[1],1.99%
same,Emax at 30 µM,[2],98.3%
same,Fold selectivity (mGlu3 vs. mGlu5),[2],1.55
same,EC50,[2],2.04 µM
"O=C1c2cc(CNc3ccccc3F)nn2CCN1c1ccc(F)cc1 [Compound 3, 5-(4-fluorophenyl)-2-(((2-fluorophenyl)amino)methyl)-6,7-dihydropyrazolo[1,5-a]pyrazin-4(5H)-one]",IC50,[1]; [3],944 nM
same,remaining activity at 30 µM,[1],1.73%
same,Emax at 30 µM,[2],95.7%
same,Fold selectivity (mGlu3 vs. mGlu5),[2],2.62
same,EC50,[2],2.47 µM
"Cc1ccccc1NCc1cc2n(n1)CCN(c1ccc(F)cc1)C2=O [Compound 4, 5-(4-fluorophenyl)-2-((o-tolylamino)methyl)-6,7-dihydropyrazolo[1,5-a]pyrazin-4(5H)-one]",IC50,[1]; [3],2390 nM
same,remaining activity at 30 µM,[1],2.62%
same,Emax at 30 µM,[2],42.2%
same,Fold selectivity (mGlu3 vs. mGlu5),[2],>4.1
same,EC50,[2],> 10 µM
"O=C1c2cc(CNc3ccccc3Cl)nn2CCN1c1ccc(F)cc1 [Compound 5, 2-(((2-chlorophenyl)amino)methyl)-5-(4-fluorophenyl)-6,7-dihydropyrazolo[1,5-a]pyrazin-4(5H)-one]",IC50,[1]; [3],1270 nM
same,remaining activity at 30 µM,[1],2.08%
same,Emax at 30 µM,[2],65.4%
same,Fold selectivity (mGlu3 vs. mGlu5),[2],1.72
same,EC50,[2],2.19 µM
"COc1ccccc1NCc1cc2n(n1)CCN(c1ccc(F)cc1)C2=O [Compound 6, 5-(4-fluorophenyl)-2-(((2-methoxyphenyl)amino)methyl)-6,7-dihydropyrazolo[1,5-a]pyrazin-4(5H)-one]",IC50,[1]; [3],3040 nM
same,remaining activity at 30 µM,[1],0.98%
same,Fold selectivity (mGlu3 vs. mGlu5),[2],>9.8
same,EC50,[2],> 30 µM
"O=C1c2cc(CNc3cccc(F)c3)nn2CCN1c1ccc(F)cc1 [Compound 7, 5-(4-fluorophenyl)-2-(((3-fluorophenyl)amino)methyl)-6,7-dihydropyrazolo[1,5-a]pyrazin-4(5H)-one]",IC50,[1]; [3],1040 nM
same,remaining activity at 30 µM,[1],1.28%
same,Emax at 30 µM,[2],99%
same,Fold selectivity (mGlu3 vs. mGlu5),[2],2.13
same,EC50,[2],2.21 µM
"Cc1cccc(NCc2cc3n(n2)CCN(c2ccc(F)cc2)C3=O)c1 [Compound 8, 5-(4-fluorophenyl)-2-((m-tolylamino)methyl)-6,7-dihydropyrazolo[1,5-a]pyrazin-4(5H)-one]",IC50,[1]; [3],1350 nM
same,remaining activity at 30 µM,[1],2.85%
same,Emax at 30 µM,[2],79.4%
same,Fold selectivity (mGlu3 vs. mGlu5),[2],4.41
same,EC50,[2],5.96 µM
"O=C1c2cc(CNc3cccc(Cl)c3)nn2CCN1c1ccc(F)cc1 [Compound 9, 2-(((3-chlorophenyl)amino)methyl)-5-(4-fluorophenyl)-6,7-dihydropyrazolo[1,5-a]pyrazin-4(5H)-one]",IC50,[1]; [3],1210 nM
same,remaining activity at 30 µM,[1],2.95%
same,Emax at 30 µM,[2],82.8%
same,Fold selectivity (mGlu3 vs. mGlu5),[2],2.74
same,EC50,[2],3.32 µM
"COc1cccc(NCc2cc3n(n2)CCN(c2ccc(F)cc2)C3=O)c1 [Compound 10, 5-(4-fluorophenyl)-2-(((3-methoxyphenyl)amino)methyl)-6,7-dihydropyrazolo[1,5-a]pyrazin-4(5H)-one]",IC50,[1]; [3],1780 nM
same,remaining activity at 30 µM,[1],2.01%
same,Fold selectivity (mGlu3 vs. mGlu5),[2],>16
same,EC50,[2],> 30 µM
"N#Cc1cccc(NCc2cc3n(n2)CCN(c2ccc(F)cc2)C3=O)c1 [Compound 11, 3-(((5-(4-fluorophenyl)-4-oxo-4,5,6,7-tetrahydropyrazolo[1,5-a]pyrazin-2-yl)methyl)amino)benzonitrile]",IC50,[1]; [3],1250 nM
same,remaining activity at 30 µM,[1],1.48%
same,Fold selectivity (mGlu3 vs. mGlu5),[2],>24
same,EC50,[2],> 30 µM
"O=C1c2cc(CNc3cccc(OC(F)F)c3)nn2CCN1c1ccc(F)cc1 [Compound 12, 2-(((3-(difluoromethoxy)phenyl)amino)methyl)-5-(4-fluorophenyl)-6,7-dihydropyrazolo[1,5-a]pyrazin-4(5H)-one]",IC50,[1]; [3],505 nM
same,remaining activity at 30 µM,[1],1.31%
same,Emax at 30 µM,[2],85.6%
same,Fold selectivity (mGlu3 vs. mGlu5),[2],14.51
same,EC50,[2],7.33 µM
"O=C1c2cc(CNc3ccc(F)cc3)nn2CCN1c1ccc(F)cc1 [Compound 13, 5-(4-fluorophenyl)-2-(((4-fluorophenyl)amino)methyl)-6,7-dihydropyrazolo[1,5-a]pyrazin-4(5H)-one]",IC50,[1]; [3],1150 nM
same,remaining activity at 30 µM,[1],2.22%
same,Emax at 30 µM,[2],56.6%
same,Fold selectivity (mGlu3 vs. mGlu5),[2],2.83
same,EC50,[2],3.26 µM
"Cc1ccc(NCc2cc3n(n2)CCN(c2ccc(F)cc2)C3=O)cc1 [Compound 14, 5-(4-fluorophenyl)-2-((p-tolylamino)methyl)-6,7-dihydropyrazolo[1,5-a]pyrazin-4(5H)-one]",IC50,[1]; [3],1540 nM
same,remaining activity at 30 µM,[1],-11.8%
same,Fold selectivity (mGlu3 vs. mGlu5),[2],>19
same,EC50,[2],> 30 µM
"O=C1c2cc(CNc3ccc(Br)cc3)nn2CCN1c1ccc(F)cc1 [Compound 16, 2-(((4-bromophenyl)amino)methyl)-5-(4-fluorophenyl)-6,7-dihydropyrazolo[1,5-a]pyrazin-4(5H)-one]",IC50,[1]; read-out: rat mGlu3 IC50,> 30000 nM
"COc1ccc(NCc2cc3n(n2)CCN(c2ccc(F)cc2)C3=O)cc1 [Compound 17, 5-(4-fluorophenyl)-2-(((4-methoxyphenyl)amino)methyl)-6,7-dihydropyrazolo[1,5-a]pyrazin-4(5H)-one]",IC50,[1]; [3],2120 nM
same,remaining activity at 30 µM,[1],1.55%
same,Fold selectivity (mGlu3 vs. mGlu5),[2],>14
same,EC50,[2],> 30 µM
"N#Cc1ccc(NCc2cc3n(n2)CCN(c2ccc(F)cc2)C3=O)cc1 [Compound 18, 4-(((5-(4-fluorophenyl)-4-oxo-4,5,6,7-tetrahydropyrazolo[1,5-a]pyrazin-2-yl)methyl)amino)benzonitrile]",IC50,[1]; [3],4780 nM
same,remaining activity at 30 µM,[1],1.71%
same,Fold selectivity (mGlu3 vs. mGlu5),[2],>6.2
same,EC50,[2],> 30 µM
"O=C1c2cc(CNc3ccc(C(F)(F)F)cc3)nn2CCN1c1ccc(F)cc1 [Compound 19, 5-(4-fluorophenyl)-2-(((4-(trifluoromethyl)phenyl)amino)methyl)-6,7-dihydropyrazolo[1,5-a]pyrazin-4(5H)-one]",IC50,[1]; read-out: rat mGlu3 IC50,> 30000 nM
same,EC50,[2],> 30 µM
"O=C1c2cc(CNc3ccc(OC(F)F)cc3)nn2CCN1c1ccc(F)cc1 [Compound 20, 2-(((4-(difluoromethoxy)phenyl)amino)methyl)-5-(4-fluorophenyl)-6,7-dihydropyrazolo[1,5-a]pyrazin-4(5H)-one]",IC50,[1]; [3],709 nM
same,remaining activity at 30 µM,[1],2.9%
same,Fold selectivity (mGlu3 vs. mGlu5),[2],>42
same,EC50,[2],> 30 µM
"O=C1c2cc(CNc3ccc(OC(F)(F)F)cc3)nn2CCN1c1ccc(F)cc1 [Compound 21, 5-(4-fluorophenyl)-2-(((4-(trifluoromethoxy)phenyl)amino)methyl)-6,7-dihydropyrazolo[1,5-a]pyrazin-4(5H)-one]",remaining activity at 30 µM,[1],13.3%
same,IC50,[1]; read-out: rat mGlu3 IC50,> 10000 nM
same,Fold selectivity (mGlu3 vs. mGlu5),[2],>3
same,EC50,[2],> 30 µM
"CCc1ccc(NCc2cc3n(n2)CCN(c2ccc(F)cc2)C3=O)cc1 [Compound 22, 2-(((4-ethylphenyl)amino)methyl)-5-(4-fluorophenyl)-6,7-dihydropyrazolo[1,5-a]pyrazin-4(5H)-one]",IC50,[1]; [3],1550 nM
same,remaining activity at 30 µM,[1],-11%
same,Fold selectivity (mGlu3 vs. mGlu5),[2],>19
same,EC50,[2],> 30 µM
"CC(C)(C)c1ccc(NCc2cc3n(n2)CCN(c2ccc(F)cc2)C3=O)cc1 [Compound 24, 2-(((4-(tert-butyl)phenyl)amino)methyl)-5-(4-fluorophenyl)-6,7-dihydropyrazolo[1,5-a]pyrazin-4(5H)-one]",IC50,[1]; read-out: rat mGlu3 IC50,> 30000 nM
O=C1c2cc(CNc3ccc(F)cc3)nn2CCN1c1ccc(F)cc1 [drawing 32 X = NH],IC50,"[1]; Table 2 compounds with X = NH, read-out: mGlu3 IC50",1150 nM
same,mGlu3 Glu max,"[1]; Table 2 compounds with X = NH, response at 30 μM compound as percentage of maximal glutamate response",2%
